From US20210382051A1, “METHODS AND COMPOUND FOR THE IDENTIFICATION AND TREATMENT OF TUBERCULOSIS” (priority 2020, published 2021) come the findings set out here.

Test [1] deals with gamma interferon production in monocyte and/or macrophage primary cell. Briefly: Production of gamma interferon by cells receiving 90I (FIG. 3). Format: cell-based. As to conditions: compared with positive control PMA-lonomycin combination; ten days assay, single time point drug addition. The source says:
FIG. 3 illustrates a graph showing production of gamma interferon by cells receiving 90I compared to other drugs, according to an exemplary embodiment of the present general inventive concept.
Referring to FIG. 3, this assay may underscore 90I's absorptions in a monocyte and/or a macrophage primary cell, such that the anti-pathogenic compound may have stability and longer pharmacokinetic half-life in ten days assay with single time point drug addition.
Moreover, activated CD8+ cells are reported to produce high levels of gamma interferon, which may be involved in the anti-TB immune responses, contributing to both control of bacterial spread and concomitant lymphoid follicular lyses. […] This finding may have a far-reaching implication and relevant in that H2K1001 and/or 90I has the potential in the restoration of immune competence, a strong immune modulator. 90I may be as strong as a vaccine because it may modulate the immune cell signal switch from Th2 to Th1 (i.e. a subset of T lymphocytes that express CD4 and are known as T-helper cells, they produce cytokines, specifically Th1-type cytokines). T-helper subset population Th1 and Th2 subset have been identified in animals and humans based on cytokines secreted. […]

In a further test the target is reverse transcriptase (Human immunodeficiency virus type 1 group M subtype B, UniProt P04585). Briefly: Effect on reverse transcriptase. It is filed as biochemical, HIV. The source says: (§1) Referring to FIGS. 2A and 2B, an anti-pathogenic agent and/or the anti-pathogenic compound may be identified as 90I (or 90i). The anti-pathogenic compound may be derived from the herbal extract identified as H2K1001. […] The essence of combination drug therapy, HAART regiments, may be its effectiveness against all HIV-1 strains that is potent enough to bring the viral load down to an undetectable level. This may be achieved by combining an RT and a PR combination synergy to affect multiple modes of action.

For the next test, the system named is HIV strains. Put plainly: Activity against HIV strains. It is filed as cell-based. As to conditions: all HIV strains.
Text: as §1

A further test addresses protease (PR) enzyme (Human immunodeficiency virus type 1 group M subtype B, UniProt P04585). Put plainly: Effect on protease (PR) enzyme. It is filed as biochemical, HIV.
Text: as §1

On to `O=C(OCCOCCOC(=O)c1ccccc1)c1ccccc1` [90I, diethylene glycol dibenzoate], for which the “amount of gamma interferon produced” value in test [1] was “equivalent to that of the positive control”. For the same compound, the “effectiveness against reverse transcriptase” value at reverse transcriptase was “potently effective”. Further, the “potency against HIV strains” value in the test on HIV strains is given as “highly potent against all HIV strains”. Besides, the “effectiveness against protease (PR) enzyme” value at protease (PR) enzyme is “potently effective”.
